Assay results reported in US9394328B2, “Crystalline dapagliflozin hydrate” (SANDOZ AG, priority 2011, dated 2016).

Protocol: The measurements were carried out with a Bruker D8 Advance powder X-ray diffractometer using Cu Kα radiation in the Bragg-Brentano reflection geometry. Generally, the 2θ values are accurate within an error of ±0.1-0.2°. The relative peak intensities can vary considerably for different samples of the same crystalline form because of different preferred orientations of the crystals. The samples were prepared without any special treatment other than the application of slight pressure to get a flat surface. Silicon single crystal sample holders of either 0.5 mm or 0.1 mm depth and 12 mm cavity diameter were used. The tube voltage and current were 40 kV and 40 mA, respectively. The X-ray diffractometer is equipped with a LynxEye detector. A variable divergence slight was used with a 3° window. The step size was 0.02° 20 with a step time of 37 seconds. The samples were rotated at 0.5 rps during the measurement.
Thermogravimetry coupled with Fourier Transform Infrared Spectroscopy (TG-FTIR): TG-FTIR was performed on a Netzsch Thermo-Microbalance TG 209, which is coupled to a Bruker FT-IR Spectrometer Vector 22. The measurements were carried out with aluminum crucibles with a micro pinhole under a nitrogen atmosphere and at a heating rate of 10° C./min over the range 25-250° C.
145 mg of crystalline hydrate form A according to example 4 is stored under a relative humidity of 60% (in an open container) for two weeks. Then the stored sample is investigated by PXRD and TG-FTIR.

For `CCOc1ccc(Cc2cc([C@@H]3O[C@H](CO)[C@@H](O)[C@H](O)[C@H]3O)ccc2Cl)cc1` [form A, dapagliflozin], the “TG-FTIR mass loss attributable to loss of water” value (after storage at relative humidity of 60% for two weeks) was “about 9%”, the “Water content in equilibrium with a water activity of about 0.6” value (concluded from TG-FTIR mass loss) was “about 2 mol water per mol dapagliflozin” and the “Crystalline form after storage (PXRD)” value (stored under a relative humidity of 60% (open container) for two weeks) was “form A is retained”.
